Source: patent publication US20010009995A1, “Oxybutynin therapy” (priority 1998, published 2001)

Settings: human, in vivo

CCNCC#CCOC(=O)C(O)(c1ccccc1)C1CCCCC1 (stereo not shown) [DESOXY, desethyloxybutynin]
t1/2 life of DESOXY compared to OXY: shorter
